Assay results reported in ChEMBL document CHEMBL4184241, “2-Formyl-komarovicine promotes adiponectin production in human mesenchymal stem cells through PPARγ partial agonism” (Bioorg Med Chem, 2018).
The source made the active and inactive calls. No cut-off for these calls is given here.

Key:
[1] = target: T1, Oxysterols receptor LXR-alpha (Homo sapiens) (UniProt Q13133); experiment: Transactivation of recombinant human GST-tagged LXRalpha-LBD at 10 uM by TR-FRET assay
T1 sequence (whole entry): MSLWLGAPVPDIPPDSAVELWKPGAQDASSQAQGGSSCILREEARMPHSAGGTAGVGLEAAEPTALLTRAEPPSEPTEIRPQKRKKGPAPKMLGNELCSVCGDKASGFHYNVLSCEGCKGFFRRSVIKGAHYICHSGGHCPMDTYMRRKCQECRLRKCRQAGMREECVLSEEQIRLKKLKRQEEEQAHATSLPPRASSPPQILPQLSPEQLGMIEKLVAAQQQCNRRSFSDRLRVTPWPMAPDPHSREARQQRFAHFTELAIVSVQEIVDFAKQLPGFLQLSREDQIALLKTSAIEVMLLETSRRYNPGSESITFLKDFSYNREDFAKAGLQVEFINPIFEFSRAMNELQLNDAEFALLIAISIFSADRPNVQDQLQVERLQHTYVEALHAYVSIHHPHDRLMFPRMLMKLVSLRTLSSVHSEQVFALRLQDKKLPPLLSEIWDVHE

[2] = target: T2, Peroxisome proliferator-activated receptor gamma (Homo sapiens) (UniProt P37231); experiment: Partial agonist activity at PPARgamma in human bone marrow-derived mesenchymal stem cells assessed as inhibition of troglitazone-induced upregulation of PPARgamma mRNA level at 3 to 10 uM measured on day 3 in presence of IDX by qRT-PCR analysis
T2 sequence (whole entry): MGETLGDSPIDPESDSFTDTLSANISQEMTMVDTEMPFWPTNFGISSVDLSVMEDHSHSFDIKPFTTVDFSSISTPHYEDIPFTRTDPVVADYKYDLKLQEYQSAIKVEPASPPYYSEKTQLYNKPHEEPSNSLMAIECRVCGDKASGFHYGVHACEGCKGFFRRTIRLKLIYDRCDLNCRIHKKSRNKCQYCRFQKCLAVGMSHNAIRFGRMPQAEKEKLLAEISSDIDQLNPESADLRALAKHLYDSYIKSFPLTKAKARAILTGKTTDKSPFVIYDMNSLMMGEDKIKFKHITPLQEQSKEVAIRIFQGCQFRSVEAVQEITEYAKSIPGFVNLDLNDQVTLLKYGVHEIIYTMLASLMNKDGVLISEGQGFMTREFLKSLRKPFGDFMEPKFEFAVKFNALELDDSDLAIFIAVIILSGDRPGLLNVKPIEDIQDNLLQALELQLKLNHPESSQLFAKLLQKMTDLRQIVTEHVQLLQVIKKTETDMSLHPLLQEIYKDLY

[3] = target: T2, Peroxisome proliferator-activated receptor gamma (Homo sapiens); experiment: Partial agonist activity at PPARgamma in human bone marrow-derived mesenchymal stem cells assessed as inhibition of troglitazone-induced increase in adiponectin level at 3 to 10 uM measured on day 5 in presence of IDX by ELISA
[4] = target: T3, Peroxisome proliferator-activated receptor gamma (Homo sapiens, UniProt P37231); experiment: Displacement of fluormone Pan-PPAR Green from human GST-tagged PPARgamma-LBD by TR-FRET assay
T3 sequence (P37231 whole entry): T2 sequence (whole entry)

Homo sapiens [5] = species: Homo sapiens; experiment: Induction of adipogenesis in human bone marrow-derived mesenchymal stem cells assessed as increase in lipid droplet accumulation at 30 uM measured on day 5 in presence of IDX by ORO staining based spectrophotometric analysis; format: functional
[6] = target: T4, Oxysterols receptor LXR-beta (Homo sapiens) (UniProt P55055); experiment: Transactivation of LXRbeta (unknown origin) at 10 uM by TR-FRET assay
T4 sequence (whole entry): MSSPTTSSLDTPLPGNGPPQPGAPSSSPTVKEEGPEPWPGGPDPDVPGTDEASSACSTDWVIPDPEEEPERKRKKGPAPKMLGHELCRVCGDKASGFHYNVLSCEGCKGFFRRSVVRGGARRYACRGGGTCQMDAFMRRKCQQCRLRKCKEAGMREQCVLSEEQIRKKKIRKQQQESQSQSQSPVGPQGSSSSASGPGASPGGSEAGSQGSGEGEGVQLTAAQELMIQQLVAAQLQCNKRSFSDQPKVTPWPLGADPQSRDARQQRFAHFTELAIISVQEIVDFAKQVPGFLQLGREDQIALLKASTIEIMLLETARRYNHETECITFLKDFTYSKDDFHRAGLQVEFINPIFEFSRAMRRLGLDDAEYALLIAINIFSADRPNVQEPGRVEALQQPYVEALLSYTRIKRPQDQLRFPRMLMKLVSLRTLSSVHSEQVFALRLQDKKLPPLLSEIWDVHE

[7] = target: T5, Peroxisome proliferator-activated receptor alpha (Homo sapiens) (UniProt Q07869); experiment: Displacement of fluormone Pan-PPAR Green from human GST-tagged PPARalpha-LBD at 10 uM by TR-FRET assay
T5 sequence (whole entry): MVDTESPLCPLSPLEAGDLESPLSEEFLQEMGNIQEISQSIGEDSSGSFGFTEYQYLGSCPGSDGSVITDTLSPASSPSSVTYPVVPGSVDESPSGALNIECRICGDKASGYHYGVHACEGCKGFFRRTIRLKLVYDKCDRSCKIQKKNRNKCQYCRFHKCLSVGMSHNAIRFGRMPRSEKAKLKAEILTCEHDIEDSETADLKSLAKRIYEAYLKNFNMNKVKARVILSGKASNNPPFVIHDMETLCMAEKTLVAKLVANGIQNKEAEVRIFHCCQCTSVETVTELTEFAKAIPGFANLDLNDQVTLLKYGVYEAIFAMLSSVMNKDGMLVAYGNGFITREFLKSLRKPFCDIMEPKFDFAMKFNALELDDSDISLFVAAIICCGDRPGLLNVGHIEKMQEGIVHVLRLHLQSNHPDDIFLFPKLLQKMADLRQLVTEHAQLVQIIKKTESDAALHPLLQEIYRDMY

[8] = target: T2, Peroxisome proliferator-activated receptor gamma (Homo sapiens); experiment: Partial agonist activity at PPARgamma in human bone marrow-derived mesenchymal stem cells assessed as inhibition of troglitazone-induced upregulation of adiponectin mRNA level at 3 to 10 uM measured on day 3 in presence of IDX by qRT-PCR analysis
[9] = target: T2, Peroxisome proliferator-activated receptor gamma (Homo sapiens); experiment: Partial agonist activity at PPARgamma in human bone marrow-derived mesenchymal stem cells assessed as inhibition of troglitazone-induced upregulation of FABP4 mRNA level at 3 to 10 uM measured on day 3 in presence of IDX by qRT-PCR analysis
[10] = target: T6, Glucocorticoid receptor (Homo sapiens) (UniProt P04150); experiment: Displacement of fluormone GS1 from human GST-tagged glucocorticoid receptor-LBD at 10 uM by TR-FRET assay
T6 sequence (whole entry): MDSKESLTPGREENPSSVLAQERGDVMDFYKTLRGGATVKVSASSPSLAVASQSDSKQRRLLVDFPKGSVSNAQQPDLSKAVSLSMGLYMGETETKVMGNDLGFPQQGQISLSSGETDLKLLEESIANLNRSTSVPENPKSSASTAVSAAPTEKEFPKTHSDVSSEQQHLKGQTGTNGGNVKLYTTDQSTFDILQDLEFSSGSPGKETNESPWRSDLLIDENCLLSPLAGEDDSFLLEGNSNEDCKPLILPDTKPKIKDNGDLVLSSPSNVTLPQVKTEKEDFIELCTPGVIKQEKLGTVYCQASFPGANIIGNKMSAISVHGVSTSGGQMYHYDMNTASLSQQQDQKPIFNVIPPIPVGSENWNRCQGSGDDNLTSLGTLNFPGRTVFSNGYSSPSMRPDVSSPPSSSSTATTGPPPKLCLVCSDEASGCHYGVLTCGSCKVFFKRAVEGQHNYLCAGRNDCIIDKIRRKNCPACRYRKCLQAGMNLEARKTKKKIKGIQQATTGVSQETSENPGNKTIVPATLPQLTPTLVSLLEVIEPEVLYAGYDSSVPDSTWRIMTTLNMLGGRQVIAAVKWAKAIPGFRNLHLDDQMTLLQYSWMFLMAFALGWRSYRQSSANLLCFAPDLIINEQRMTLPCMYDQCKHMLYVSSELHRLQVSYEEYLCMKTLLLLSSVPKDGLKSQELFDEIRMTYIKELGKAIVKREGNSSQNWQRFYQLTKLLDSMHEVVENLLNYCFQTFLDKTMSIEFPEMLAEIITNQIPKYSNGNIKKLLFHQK

Homo sapiens [11] = species: Homo sapiens; experiment: Induction of adipogenesis in human bone marrow-derived mesenchymal stem cells assessed as increase in adiponectin production measured on day 5 in presence of IDX by ELISA; format: functional
[12] = target: T2, Peroxisome proliferator-activated receptor gamma (Homo sapiens); experiment: Displacement of fluormone Pan-PPAR Green from human GST-tagged PPARgamma-LBD at 10 uM by TR-FRET assay relative to control
[13] = target: T7, Peroxisome proliferator-activated receptor delta (Homo sapiens) (UniProt Q03181); experiment: Displacement of fluormone Pan-PPAR Green from human GST-tagged PPARdelta-LBD at 10 uM by TR-FRET assay
T7 sequence (whole entry): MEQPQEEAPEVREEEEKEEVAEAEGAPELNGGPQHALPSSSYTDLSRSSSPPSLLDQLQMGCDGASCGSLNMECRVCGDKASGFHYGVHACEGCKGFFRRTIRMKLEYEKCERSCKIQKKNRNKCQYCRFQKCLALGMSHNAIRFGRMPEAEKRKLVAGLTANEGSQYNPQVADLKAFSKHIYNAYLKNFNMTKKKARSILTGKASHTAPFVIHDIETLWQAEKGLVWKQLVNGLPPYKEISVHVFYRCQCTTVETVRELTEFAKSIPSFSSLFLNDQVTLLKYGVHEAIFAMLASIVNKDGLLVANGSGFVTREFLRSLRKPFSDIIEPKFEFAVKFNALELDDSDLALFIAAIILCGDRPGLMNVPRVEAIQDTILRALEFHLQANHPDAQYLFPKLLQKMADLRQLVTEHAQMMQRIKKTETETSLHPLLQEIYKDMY

Homo sapiens [14] = species: Homo sapiens; experiment: Induction of adipogenesis in human bone marrow-derived mesenchymal stem cells assessed as increase in adiponectin production at 100 uM measured on day 5 in presence of IDX by ELISA; format: functional
Homo sapiens [15] = species: Homo sapiens; experiment: Induction of adipogenesis in human bone marrow-derived mesenchymal stem cells assessed as increase in adiponectin production at 60 uM measured on day 5 in presence of IDX by ELISA; format: functional
[16] = target: T1, Oxysterols receptor LXR-alpha (Homo sapiens); experiment: Transactivation of recombinant human GST-tagged LXRalpha-LBD at 30 uM by TR-FRET assay
[17] = target: T6, Glucocorticoid receptor (Homo sapiens); experiment: Displacement of fluormone GS1 from human GST-tagged glucocorticoid receptor-LBD at 30 uM by TR-FRET assay
[18] = target: T2, Peroxisome proliferator-activated receptor gamma (Homo sapiens); experiment: Displacement of fluormone Pan-PPAR Green from human GST-tagged PPARgamma-LBD at 30 uM by TR-FRET assay relative to control
[19] = target: T5, Peroxisome proliferator-activated receptor alpha (Homo sapiens); experiment: Displacement of fluormone Pan-PPAR Green from human GST-tagged PPARalpha-LBD at 30 uM by TR-FRET assay
[20] = target: T4, Oxysterols receptor LXR-beta (Homo sapiens); experiment: Transactivation of LXRbeta (unknown origin) at 30 uM by TR-FRET assay
[21] = target: T7, Peroxisome proliferator-activated receptor delta (Homo sapiens); experiment: Displacement of fluormone Pan-PPAR Green from human GST-tagged PPARdelta-LBD at 30 uM by TR-FRET assay
Homo sapiens [22] = species: Homo sapiens; experiment: Induction of adipogenesis in human bone marrow-derived mesenchymal stem cells assessed as increase in adiponectin production at 1 uM measured on day 5 in presence of IDX by ELISA; format: functional
Homo sapiens [23] = species: Homo sapiens; experiment: Induction of adipogenesis in human bone marrow-derived mesenchymal stem cells assessed as increase in adiponectin production at 10 uM measured on day 5 in presence of IDX by ELISA; format: functional

O=CN1CCc2c([nH]c3ccccc23)C1c1cccc2cccnc12 (stereo not drawn)
Activity [1]: inactive | inhibition [2]: Active | inhibition [3]: Active | Ki [4]: 7.1 µM | Activity (Homo sapiens [5]): Active | Activity [6]: inactive | Activity [7]: inactive | inhibition [8]: Active | inhibition [9]: Active | Activity [10]: inactive | Activity (Homo sapiens [11]): Dose-dependent effect | Activity [12]: 58% | Activity [13]: inactive

CC(=O)Oc1ccccc1C(=O)O
Activity (Homo sapiens [14]): Active

c1cnc2c(C3NCCc4c3[nH]c3ccccc43)cccc2c1 (stereo not drawn)
Activity (Homo sapiens [15]): Active | Activity [16]: inactive | Activity [17]: inactive | Activity [18]: 24 to 36% | Activity [19]: inactive | Activity [20]: inactive | Activity [21]: inactive

Cc1c(C)c2c(c(C)c1O)CCC(C)(COc1ccc(CC3SC(=O)NC3=O)cc1)O2 (stereo not drawn)
Activity (Homo sapiens [22]): Active

COc1ccc(Cl)cc1C(=O)NCCc1ccc(S(=O)(=O)NC(=O)NC2CCCCC2)cc1
Activity (Homo sapiens [23]): Active
